Molecular target: T1, PD-1/PD-L1 complex (Homo sapiens, UniProt Q9NZQ7)
T1 construct: purchased cis-bio
Experiment: HTRF assay of PD-1/PD-L1 complex inhibition (cis-bio kit)
Assay type: binding
Conditions: for inhibition at 0.5 µM / inhibition at 5 µM: 1 h, scouting mode, 5 nM PD-L1, 50 nM PD-1, read-out: HTRF [%] (percentage of dissociated PD-1/PD-L1 complex); for inhibition at 0.5 µM: inhibitor 0.5 µM; for inhibition at 5 µM: inhibitor 5 µM
Protocol: All synthesized molecules were tested in the homogeneous time-resolved fluorescence (HTRF) assay to assess their activity as inhibitors of the PD-1/PD-L1 complex (Table 1, Table 2 and Table 3). This evaluation was conducted in scouting modes, employing concentrations of 5 μM and 0.5 μM. Based on the obtained measurements, the IC50 values were estimated for each tested compound.
The certified cis-bio assay kit was used to perform the HTRF assay. Following the standard protocol, the measurement was carried out at a 20 µL final volume with a 5 nM concentration of PD-L1 and a 50 nM concentration of PD-1 in the final formulation. […] The plate was incubated for 1 h and then read on an HTRF-certified Tecan Spark 20M microplate reader. Output data were subjected to background subtraction on negative control (without PD-1) and normalization in correlation to the positive control (without inhibitor) and were then averaged. The resulting data points were then fitted with Hill’s equation to generate IC50 using Mathematica 12. […]

T1 sequence (Q9NZQ7 19-238 limits assumed, one chain of several): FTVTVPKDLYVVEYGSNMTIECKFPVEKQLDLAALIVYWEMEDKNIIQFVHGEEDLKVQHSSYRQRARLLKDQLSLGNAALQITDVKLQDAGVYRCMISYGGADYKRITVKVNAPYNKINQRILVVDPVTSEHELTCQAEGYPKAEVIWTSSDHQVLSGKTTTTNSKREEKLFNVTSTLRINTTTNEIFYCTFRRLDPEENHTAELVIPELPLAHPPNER

How did the inhibition at 0.5 µM turn out when `CC(=O)NCCNCc1cccc(OCc2cccc(-c3cc(C)cc(-c4cccc(COc5cccc(CNCCNC(C)=O)c5)c4)c3)c2)c1` [Compound 4a, N,N’-(((((((5′-methyl-[1,1′:3′,1′′-terphenyl]-3,3′′-diyl)bis(methylene))bis(oxy))bis(3,1-phenylene))bis(methylene))bis(azanediyl))bis(ethane-2,1-diyl))diacetamide] was run?
Its inhibition at 0.5 µM is 80.4 ± 18.8%.

What about the inhibition at 5 µM of the same compound?
Its inhibition at 5 µM is 56.8 ± 15.4%.

How did the inhibition at 0.5 µM turn out when `CC(=O)NCCNCc1cccc(OCc2cccc(-c3cc(C)cc(-c4cccc(COc5cccc(CNCCNC(C)=O)c5Br)c4)c3)c2)c1Br` [Compound 4c, N,N’-(((((((5′-methyl-[1,1′:3′,1′′-terphenyl]-3,3′′-diyl)bis(methylene))bis(oxy))bis(2-bromo-3,1-phenylene))bis(methylene))bis(azanediyl))bis(ethane-2,1-diyl))diacetamide] was run?
Its inhibition at 0.5 µM is 88.6 ± 14%.

What about the inhibition at 5 µM of the same compound?
The inhibition at 5 µM was 70.8 ± 18.8%.

How did the inhibition at 0.5 µM turn out when `CC(=O)NCCNCc1cccc(OCc2cccc(-c3cc(C)cc(-c4cccc(COc5cccc(CNCCNC(C)=O)c5)c4F)c3)c2F)c1` [Compound 4d, N,N’-(((((((2,2′′-difluoro-5′-methyl-[1,1′:3′,1′′-terphenyl]-3,3′′-diyl)bis(methylene))bis(oxy))bis(3,1-phenylene))bis(methylene))bis(azanediyl))bis(ethane-2,1-diyl))diacetamide] was run?
Its inhibition at 0.5 µM is 89.9 ± 19.8%.

And the inhibition at 5 µM?
Its inhibition at 5 µM is 22.5 ± 9.17%.

Which results are given for `CC(=O)NCCNCc1cccc(OCc2cccc(-c3cc(C)cc(-c4cccc(COc5cccc(CNCCNC(C)=O)c5Br)c4C)c3)c2C)c1Br` [Compound 4e, N,N’-(((((((2,2′′,5′-trimethyl-[1,1′:3′,1′′-terphenyl]-3,3′′-diyl)bis(methylene))bis(oxy))bis(2-bromo-3,1-phenylene))bis(methylene))bis(azanediyl))bis(ethane-2,1-diyl))diacetamide]?
inhibition at 0.5 µM: 93.9 ± 5.5%; inhibition at 5 µM: 94.2 ± 2.3%; IC50 Estimated (estimated from scouting data (5 and 0.5 µM) by translation of the Hill fit of 7b, 7j, 7m): not active

For `CC(=O)NCCNCc1cc(F)c(OCc2cccc(-c3cc(C)cc(-c4cccc(COc5cc(F)c(CNCCNC(C)=O)cc5F)c4C)c3)c2C)cc1F` [Compound 4f, N,N’-(((((((2,2′′,5′-trimethyl-[1,1′:3′,1′′-terphenyl]-3,3′′-diyl)bis(methylene))bis(oxy))bis(2,5-difluoro-4,1-phenylene))bis(methylene))bis(azanediyl))bis(ethane-2,1-diyl))diacetamide], which inhibition at 0.5 µM is on record?
Its inhibition at 0.5 µM is 85.7 ± 10.9%.

What about the inhibition at 5 µM of the same compound?
Its inhibition at 5 µM is 28.2 ± 1.5%.

For `COc1cccc(CNCCNC(C)=O)c1OCc1ccccc1-c1cc(C)cc(-c2ccccc2COc2c(CNCCNC(C)=O)cccc2OC)c1` [Compound 5a, N,N’-(((((((5′-methyl-[1,1′:3′,1′′-terphenyl]-2,2′′-diyl)bis(methylene))bis(oxy))bis(3-methoxy-2,1-phenylene))bis(methylene))bis(azanediyl))bis(ethane-2,1-diyl))diacetamide], which inhibition at 0.5 µM is on record?
Its inhibition at 0.5 µM is 84.3 ± 13.1%.

What about the inhibition at 5 µM of the same compound?
The inhibition at 5 µM was 78.4 ± 6.4%.

How did the inhibition at 0.5 µM turn out when `COc1cc(-c2cc(C)cc(-c3ccc(COc4c(CNCCNC(C)=O)cccc4OC)c(OC)c3)c2)ccc1COc1c(CNCCNC(C)=O)cccc1OC` [Compound 6a, N,N’-(((((((3,3′′-dimethoxy-5′-methyl-[1,1′:3′,1′′-terphenyl]-4,4′′-diyl)bis(methylene))bis(oxy))bis(3-methoxy-2,1-phenylene))bis(methylene))bis(azanediyl))bis(ethane-2,1-diyl))diacetamide] was run?
The inhibition at 0.5 µM was 86.1 ± 4.5%.

And the inhibition at 5 µM?
The inhibition at 5 µM was 59.2 ± 2.6%.

Which results are given for `COc1cc(-c2cccc(-c3ccc(COc4ccc(CNCCNC(C)=O)cc4OC)c(OC)c3)c2C)ccc1COc1ccc(CNCCNC(C)=O)cc1OC` [Compound 7a, N,N’-(((((((3,3′′-dimethoxy-2′-methyl-[1,1′:3′,1′′-terphenyl]-4,4′′-diyl)bis(methylene))bis(oxy))bis(3-methoxy-4,1-phenylene))bis(methylene))bis(azanediyl))bis(ethane-2,1-diyl))diacetamide]?
inhibition at 0.5 µM: 72.5 ± 8.1%; inhibition at 5 µM: 23.8 ± 0.3%

How did the inhibition at 0.5 µM turn out when `COc1cc(-c2cccc(-c3ccc(COc4ccc(CNCCO)cc4OC)c(OC)c3)c2C)ccc1COc1ccc(CNCCO)cc1OC` [Compound 7b, 2,2′-((((((3,3′′-dimethoxy-2′-methyl-[1,1′:3′,1′′-terphenyl]-4,4′′-diyl)bis(methylene))bis(oxy))bis(3-methoxy-4,1-phenylene))bis(methylene))bis(azanediyl))bis(ethan-1-ol)] was run?
Its inhibition at 0.5 µM is 60.9 ± 3.9%.

And the inhibition at 5 µM?
Its inhibition at 5 µM is 11.9 ± 1%.

How did the inhibition at 0.5 µM turn out when `COc1cc(CNCCNC(C)=O)ccc1OCc1ccc(-c2cccc(-c3ccc(COc4ccc(CNCCNC(C)=O)cc4OC)cc3C)c2C)c(C)c1` [Compound 7c, N,N’-(((((((2,2′,2′′-trimethyl-[1,1′:3′,1′′-terphenyl]-4,4′′-diyl)bis(methylene))bis(oxy))bis(3-methoxy-4,1-phenylene))bis(methylene))bis(azanediyl))bis(ethane-2,1-diyl))diacetamide] was run?
Its inhibition at 0.5 µM is 82.1 ± 8%.

What about the inhibition at 5 µM of the same compound?
Its inhibition at 5 µM is 77.1 ± 0.7%.

Which inhibition at 0.5 µM does the source give for `COc1cc(CNCCO)ccc1OCc1ccc(-c2cccc(-c3ccc(COc4ccc(CNCCO)cc4OC)cc3C)c2C)c(C)c1` [Compound 7d, 2,2′-((((((2,2′,2′′-trimethyl-[1,1′:3′,1′′-terphenyl]-4,4′′-diyl)bis(methylene))bis(oxy))bis(3-methoxy-4,1-phenylene))bis(methylene))bis(azanediyl))bis(ethan-1-ol)] here?
Its inhibition at 0.5 µM is 86.1 ± 12.7%.

What about the inhibition at 5 µM of the same compound?
The inhibition at 5 µM was 35.7 ± 3.3%.

`COc1cc(CNCCNC(C)=O)ccc1OCc1ccc(-c2cccc(-c3ccc(COc4ccc(CNCCNC(C)=O)cc4OC)c(C)c3)c2C)cc1C` [Compound 7e, N,N’-(((((((2′,3,3′′-trimethyl-[1,1′:3′,1′′-terphenyl]-4,4′′-diyl)bis(methylene))bis(oxy))bis(3-methoxy-4,1-phenylene))bis(methylene))bis(azanediyl))bis(ethane-2,1-diyl))diacetamide] was tested. Which inhibition at 0.5 µM did it give?
Its inhibition at 0.5 µM is 93.8 ± 3.6%.

And the inhibition at 5 µM?
Its inhibition at 5 µM is 55.3 ± 13.4%.

How did the inhibition at 0.5 µM turn out when `COc1cc(CNCCO)ccc1OCc1ccc(-c2cccc(-c3ccc(COc4ccc(CNCCO)cc4OC)c(C)c3)c2C)cc1C` [Compound 7f, 2,2′-((((((2′,3,3′′-trimethyl-[1,1′:3′,1′′-terphenyl]-4,4′′-diyl)bis(methylene))bis(oxy))bis(3-methoxy-4,1-phenylene))bis(methylene))bis(azanediyl))bis(ethan-1-ol)] was run?
Its inhibition at 0.5 µM is 93.1 ± 17.4%.

What about the inhibition at 5 µM of the same compound?
The inhibition at 5 µM was 46.4 ± 9.6%.

`COc1cc(CNC(CO)CO)ccc1OCc1ccc(-c2cccc(-c3ccc(COc4ccc(CNC(CO)CO)cc4OC)c(C)c3)c2C)cc1C` [Compound 7g, 2,2′-((((((2′,3,3′′-trimethyl-[1,1′:3′,1′′-terphenyl]-4,4′′-diyl)bis(methylene))bis(oxy))bis(3-methoxy-4,1-phenylene))bis(methylene))bis(azanediyl))bis(propane-1,3-diol)] was tested. Which inhibition at 0.5 µM did it give?
Its inhibition at 0.5 µM is 94.5 ± 18.1%.

What about the inhibition at 5 µM of the same compound?
Its inhibition at 5 µM is 53.7 ± 1.7%.

Which inhibition at 0.5 µM does the source give for `CC(=O)NCCNCc1cc(F)c(OCc2ccc(-c3cccc(-c4ccc(COc5cc(F)c(CNCCNC(C)=O)cc5F)c(C)c4)c3C)cc2C)cc1F` [Compound 7h, N,N’-(((((((2′,3,3′′-trimethyl-[1,1′:3′,1′′-terphenyl]-4,4′′-diyl)bis(methylene))bis(oxy))bis(2,5-difluoro-4,1-phenylene))bis(methylene))bis(azanediyl))bis(ethane-2,1-diyl))diacetamide] here?
Its inhibition at 0.5 µM is 84.1 ± 26.4%.

And the inhibition at 5 µM?
The inhibition at 5 µM was 69 ± 0.9%.

With `Cc1cc(-c2cccc(-c3ccc(COc4cc(F)c(CNCCO)cc4F)c(C)c3)c2C)ccc1COc1cc(F)c(CNCCO)cc1F` [Compound 7i, 2,2′-((((((2′,3,3′′-trimethyl-[1,1′:3′,1′′-terphenyl]-4,4′′-diyl)bis(methylene))bis(oxy))bis(2,5-difluoro-4,1-phenylene))bis(methylene))bis(azanediyl))bis(ethan-1-ol)] as the compound, how does the inhibition at 0.5 µM read?
Its inhibition at 0.5 µM is 78.5 ± 7.3%.

What about the inhibition at 5 µM of the same compound?
The inhibition at 5 µM was 42.2 ± 7.2%.

What does the source list for `CC(=O)NCCNCc1cccc(OCc2ccc(-c3cccc(-c4ccc(COc5cccc(CNCCNC(C)=O)c5Br)cc4)c3C)cc2)c1Br` [Compound 7j, N,N’-(((((((2′-methyl-[1,1′:3′,1′′-terphenyl]-4,4′′-diyl)bis(methylene))bis(oxy))bis(2-bromo-3,1-phenylene))bis(methylene))bis(azanediyl))bis(ethane-2,1-diyl))diacetamide]?
inhibition at 0.5 µM: 40.4 ± 1.5%; inhibition at 5 µM: 11.1 ± 0.3%

With `Cc1c(-c2cccc(COc3cccc(CNCCO)c3Br)c2)cccc1-c1cccc(COc2cccc(CNCCO)c2Br)c1` [Compound 8a, 2,2′-((((((2′-methyl-[1,1′:3′,1′′-terphenyl]-3,3′′-diyl)bis(methylene))bis(oxy))bis(2-bromo-3,1-phenylene))bis(methylene))bis(azanediyl))bis(ethan-1-ol)] as the compound, how does the inhibition at 0.5 µM read?
The inhibition at 0.5 µM was 94.6 ± 0.1%.

And the inhibition at 5 µM?
Its inhibition at 5 µM is 23 ± 0.1%.

What does the source list for `COc1cccc(CNCCO)c1OCc1cccc(-c2cccc(-c3cccc(COc4c(CNCCO)cccc4OC)c3)c2C)c1` [Compound 8c, 2,2′-((((((2′-methyl-[1,1′:3′,1′′-terphenyl]-3,3′′-diyl)bis(methylene))bis(oxy))bis(3-methoxy-2,1-phenylene))bis(methylene))bis(azanediyl))bis(ethan-1-ol)]?
inhibition at 0.5 µM: 104 ± 3.3%; inhibition at 5 µM: 61.1 ± 4.5%

— article PMC11173618, “C2-Symmetrical Terphenyl Derivatives as Small Molecule Inhibitors of Programmed Cell Death 1/Programmed Death Ligand 1 Protein–Protein Interaction” (Molecules, 2024)
